Results on 19 molecules are retold here after patent US11142515B2, “Pyrazolyl-ureas as kinase inhibitors” (RESPIVERT LIMITED, priority 2014, dated 2021).

Assay [1] addresses T1, p38 MAPKα isoform (MAPK14) (Homo sapiens, UniProt Q16539).
T1 construct: purchased Life Technologies
Nature of the assay: p38 MAPKα enzyme inhibition (Z-LYTE FRET). The class given is biochemical. The conditions noted are these: Table 2B, unit inferred; read-out: p38 MAPKα (Enzyme Profile). The procedure: The enzyme inhibitory activities of compounds disclosed herein were determined by FRET using synthetic peptides labelled with both donor and acceptor fluorophores (Z-LYTE, Life Technologies, Paisley, UK).
The inhibitory activities of compounds of the invention against the p38 MAPKα isoform (MAPK14: Life Technologies), were evaluated indirectly by determining the level of activation/phosphorylation of the target peptide of the p38 MAPKα down-stream molecule, MAPKAP-K2. The enzyme (40 ng/mL, 2.5 μL) was incubated with the test compound (2.5 μL of either 40 μg/mL, 12 μg/mL, 4 μg/mL, 1.2 μg/mL, 0.4 μg/mL, 0.12 μg/mL, 0.04 μg/mL, 0.012 μg/mL, 0.004 μg/mL or 0.0012 μg/mL) for 2 h at RT. […] Development reagent (protease, 5 μL) was added for 1 h prior to detection in a fluorescence microplate reader (EnVision, Perkin Elmer, Waltham, Mass., USA).
In all cases, the site-specific protease cleaves non-phosphorylated peptide only and eliminates the FRET signal. Phosphorylation levels of each reaction were calculated using the ratio of coumarin emission (donor) over fluorescein emission (acceptor), for which low ratios indicate high phosphorylation and high ratios indicate low phosphorylation levels.

Another assay concerns the target T2, p38MAPKγ (MAPK12) (Homo sapiens, UniProt P53778).
T2 construct: purchased Life Technologies
T2 sequence (P53778 1-367): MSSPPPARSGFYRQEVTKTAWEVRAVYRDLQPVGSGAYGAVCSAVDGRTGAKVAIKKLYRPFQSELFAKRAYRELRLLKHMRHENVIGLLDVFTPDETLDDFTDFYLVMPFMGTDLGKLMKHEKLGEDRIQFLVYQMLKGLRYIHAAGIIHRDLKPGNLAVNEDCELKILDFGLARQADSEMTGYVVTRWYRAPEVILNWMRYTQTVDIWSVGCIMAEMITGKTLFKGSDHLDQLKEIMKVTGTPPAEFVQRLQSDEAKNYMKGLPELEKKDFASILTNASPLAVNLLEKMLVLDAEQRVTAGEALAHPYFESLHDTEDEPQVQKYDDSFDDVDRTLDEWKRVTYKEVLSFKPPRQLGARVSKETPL
In words: p38 MAPKγ enzyme inhibition (Z-LYTE FRET). The assay is classed as biochemical. The conditions noted are these: Table 2B, unit inferred; read-out: p38 MAPKγ (Enzyme Profile). The method in brief:
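Enzyme (added at 800 ng/mL) was preincubated 2 h at RT with compound (solutions of 40 to 0.0012 μg/mL), then FRET peptide (8 μM) and ATP (400 μM), both as added, were reacted 1 h at RT. Protease development followed for 1 h; phosphorylation was read as the coumarin/fluorescein emission ratio.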

Each structure is given as a SMILES string.

T1 sequence (Q16539 whole entry, canonical isoform): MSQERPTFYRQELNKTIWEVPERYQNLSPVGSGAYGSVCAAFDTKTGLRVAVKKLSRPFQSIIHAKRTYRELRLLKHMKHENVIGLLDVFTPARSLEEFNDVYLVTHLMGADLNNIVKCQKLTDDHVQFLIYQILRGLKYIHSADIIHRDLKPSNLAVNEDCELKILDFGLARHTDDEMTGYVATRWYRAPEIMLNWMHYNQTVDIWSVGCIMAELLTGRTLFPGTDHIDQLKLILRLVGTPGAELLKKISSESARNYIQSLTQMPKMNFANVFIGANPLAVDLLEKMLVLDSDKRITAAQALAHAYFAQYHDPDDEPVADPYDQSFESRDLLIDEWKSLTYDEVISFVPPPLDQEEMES

For the molecule `Cc1ccc(-n2nc(C(C)(C)C)cc2NC(=O)Nc2ccc(OCc3ccnc(Nc4cncc(N(C)C)n4)c3)c3ccccc23)s1` [Example 111, 1-(3-(tert-butyl)-1-(5-methylthiophen-2-yl)-1H-pyrazol-5-yl)-3-(4-((2-((6-(dimethylamino)pyrazin-2-yl)amino)pyridin-4-yl)methoxy)naphthalen-1-yl)urea], the IC50 in assay [1] was 33 nM; on p38MAPKγ (MAPK12), 125 nM.

Turning to `Cc1cc(-n2nc(C(C)(C)C)cc2NC(=O)Nc2ccc(OCc3ccnc(Nc4cncc(N(C)C)n4)c3)c3ccccc23)cs1` [Example 112, 1-(3-(tert-butyl)-1-(5-methylthiophen-3-yl)-1H-pyrazol-5-yl)-3-(4-((2-((6-(dimethylamino)pyrazin-2-yl)amino)pyridin-4-yl)methoxy)naphthalen-1-yl) urea], the IC50 in assay [1] is 43 nM; on p38MAPKγ (MAPK12), 277 nM.

On to `COc1cncc(Nc2cc(COc3ccc(NC(=O)Nc4cc(C(C)(C)C)nn4-c4csc(C)c4)c4ccccc34)ccn2)n1` [Example 113, 1-(3-(tert-butyl)-1-(5-methylthiophen-3-yl)-1H-pyrazol-5-yl)-3-(4-((2-((6-methoxypyrazin-2-yl)amino)pyridin-4-yl)methoxy)naphthalen-1-yl) urea], for which the IC50 in assay [1] was 37 nM; on p38MAPKγ (MAPK12) it was 3200 nM.

Regarding `CN(C)c1cncc(Nc2cc(COc3ccc(NC(=O)Nc4cc(C(C)(C)C)nn4-c4ccc(CO)cc4)c4ccccc34)ccn2)n1` [Example 114, 1-(3-(tert-butyl)-1-(4-(hydroxymethyl)phenyl)-1H-pyrazol-5-yl)-3-(4-((2-((6-(dimethylamino)pyrazin-2-yl)amino)pyridin-4-yl)methoxy)naphthaien-1-yl)urea], the IC50 was found to be 2 nM in assay [1] and 26 nM at p38MAPKγ (MAPK12).

In the case of `CN(C)c1cncc(Nc2cc(COc3ccc(NC(=O)Nc4cc(C(C)(C)C)nn4-c4ccc(O)cc4)c4ccccc34)ccn2)n1` [Example 115, 1-(3-(tert-butyl)-1-(4-hydroxyphenyl)-1H-pyrazol-5-yl)-3-(4-((2-((6-(dimethyl-amino)pyrazin-2-yl)amino)pyridin-4-yl)methoxy)naphthalen-1-yl)urea], the IC50 in assay [1] turned out to be 7.5 nM; on p38MAPKγ (MAPK12), 725 nM.

Consider `CCOc1cncc(Nc2cc(COc3ccc(NC(=O)Nc4cc(C(C)(C)C)nn4-c4ccc(C)cc4)c4ccccc34)ccn2)n1` [Example 116, 1-(3-(tert-butyl)-1-(p-tolyl)-1H-pyrazol-5-yl)-3-(4-((2-((6-ethoxypyrazin-2-yl)amino)pyridin-4-yl)methoxy)naphthalen-1-yl)urea], for which the figures for the IC50 (in assay [1]; on p38MAPKγ (MAPK12)) were 23 nM and 2820 nM, respectively.

Turning to `Cc1ccc(-n2nc(C(C)(C)C)cc2NC(=O)Nc2ccc(OCc3ccnc(Nc4cncc(NC(C)C)n4)c3)c3ccccc23)cc1` [Example 117, 1-(3-(tert-butyl)-1-(p-tolyl)-1H-pyrazol-5-yl)-3-(4-((2-((6-(isopropylamino)pyrazin-2-yl)amino)pyridin-4-yl)methoxy)naphthalen-1-yl) urea], the IC50 in assay [1] worked out at 16 nM; on p38MAPKγ (MAPK12), 150 nM.

On to `Cc1ccc(-n2nc(C(C)(C)C)cc2NC(=O)Nc2ccc(OCc3ccnc(Nc4cncc(N5CCOCC5)n4)c3)c3ccccc23)cc1` [Example 118, 1-(3-(tert-butyl)-1-(p-tolyl)-1H-pyrazol-5-yl)-3-(4-((2-((6-morpholinopyrazin-2-yl)amino)pyridin-4-yl)methoxy)naphthalen-1-yl) urea], for which the IC50 was 5.5 nM in assay [1] and 115 nM at p38MAPKγ (MAPK12).

On to `Cc1ccc(-n2nc(C(C)(C)C)cc2NC(=O)Nc2ccc(OCc3ccnc(Nc4cncc(NC5CC5)n4)c3)c3ccccc23)cc1` [Example 119, 1-(3-(tert-butyl)-1-(p-tolyl)-1H-pyrazol-5-yl)-3-(4-((2-((6-(cyclopropylamino)pyrazin-2-yl)amino)pyridin-4-yl)methoxy)naphthalen-1-yl)urea], for which the IC50 in assay [1] is 13 nM; on p38MAPKγ (MAPK12), 175 nM.

As to `CNc1cncc(Nc2cc(COc3ccc(NC(=O)Nc4cc(C(C)(C)C)nn4-c4ccc(C)cc4)c4ccccc34)ccn2)n1` [Example 120, 1-(3-(tert-butyl)-1-(p-tolyl)-1H-pyrazol-5-yl)-3-(4-((2-((6-(methylamino)pyrazin-2-yl)amino)pyridin-4-yl)methoxy)naphthalen-1-yl) urea], the IC50 was 4.8 nM in assay [1] and 173 nM on p38MAPKγ (MAPK12).

Turning to `Cc1ccc(-n2nc(C(C)(C)C)cc2NC(=O)Nc2ccc(OCc3ccnc(Nc4cncc(OCCO)n4)c3)c3ccccc23)cc1` [Example 121, 1-(3-(tert-butyl)-1-(p-tolyl)-1H-pyrazol-5-yl)-3-(4-((2-((6-(2-hydroxyethoxy)pyrazin-2-yl)amino)pyridin-4-yl)methoxy)naphthalen-1-yl)urea], the results for the IC50 (in assay [1]; at p38MAPKγ (MAPK12)) were 38 nM and 79 nM, respectively.

Turning to `Cc1ccc(-n2nc(C(C)(C)C)cc2NC(=O)Nc2ccc(OCc3ccnc(Nc4cncc(OCC(C)C)n4)c3)c3ccccc23)cc1` [Example 122, 1-(3-(tert-butyl)-1-(p-tolyl)-1H-pyrazol-5-yl)-3-(4-((2-((6-isobutoxypyrazin-2-yl)amino)pyridin-4-yl)methoxy)naphthalen-1-yl) urea], the IC50 in assay [1] stood at 2780 nM; at p38MAPKγ (MAPK12), 8740 nM.

Turning to `Cc1ccc(-n2nc(C(C)(C)C)cc2NC(=O)Nc2ccc(OCc3ccnc(Nc4cncc(N5CC(O)C5)n4)c3)c3ccccc23)cc1` [Example 123, 1-(3-(tert-butyl)-1-(p-tolyl)-1H-pyrazol-5-yl)-3-(4-((2-((6-(3-hydroxyazetidin-1-yl)pyrazin-2-yl)amino)pyridin-4-yl)methoxy)naphthalen-1-yl)urea], the IC50 in assay [1] is 60 nM; at p38MAPKγ (MAPK12) it was 171 nM.

Take `Cc1ccc(-n2nc(C(C)(C)C)cc2NC(=O)Nc2ccc(OCc3ccnc(Nc4cnc(C(=O)NCCOC(C)C)cn4)c3)c3ccccc23)cc1` [Example 124, 5-((4-(((4-(3-(3-(tert-butyl)-1-(p-tolyl)-1H-pyrazol-5-yl)ureido)naphthalen-1-yl)oxy)methyl)pyridin-2-yl)amino)-N-(2-isopropoxy-ethyl)pyrazine-2-carboxamide]: the IC50 in assay [1] is 288 nM; at p38MAPKγ (MAPK12), more than 13700 nM.

For `Cc1ccc(-n2nc(C(C)(C)C)cc2NC(=O)Nc2ccc(OCc3ccnc(Nc4cnc(C(=O)NCCOC(C)(C)C)cn4)c3)c3ccccc23)cc1` [Example 125, N-(2-(tert-butoxy)ethyl)-5-((4-(((4-(3-(3-(tert-butyl)-1-(p-tolyl)-1H-pyrazol-5-yl)ureido)naphthalen-1-yl)oxy)methyl)pyridin-2-yl)amino)pyrazine-2-carboxamide], the IC50 is 302 nM in assay [1] and more than 13500 nM on p38MAPKγ (MAPK12).

Consider `Cc1ccc(-n2nc(C(C)(C)C)cc2NC(=O)Nc2ccc(OCc3ccnc(Nc4cnc(C(=O)N5CC[C@H](O)C5)cn4)c3)c3ccccc23)cc1` [Example 126, (S)-1-(3-(tert-butyl)-1-(p-tolyl)-1H-pyrazol-5-yl)-3-(4-((2-((5-(3-hydroxypyrrolidine-1-carbonyl)pyrazin-2-yl)amino)pyridin-4-yl)methoxy)naphthalen-1-yl)urea], for which the figures for the IC50 (in assay [1]; on p38MAPKγ (MAPK12)) were 47 nM and 187 nM, respectively.

As for `Cc1ccc(-n2nc(C(C)(C)C)cc2NC(=O)Nc2ccc(OCc3ccnc(Nc4cnc(C(=O)N5CCC(O)CC5)cn4)c3)c3ccccc23)cc1` [Example 127, 1-(3-(tert-butyl)-1-(p-tolyl)-1H-pyrazol-5-yl)-3-(4-((2-((5-(4-hydroxypiperidine-1-carbonyl)pyrazin-2-yl)amino)pyridin-4-yl)methoxy)naphthalen-1-yl) urea], the IC50 in assay [1] was 6.8 nM; at p38MAPKγ (MAPK12) it was 93 nM.

Regarding `Cc1ccc(-n2nc(C(C)(C)C)cc2NC(=O)Nc2ccc(OCc3ccnc(Nc4cnc(C(=O)N5CCC5)cn4)c3)c3ccccc23)cc1` [Example 128, 1-(4-((2-((5-(azetidine-1-carbonyl)pyrazin-2-yl)amino)pyridin-4-yl)methoxy)naphthalen-1-yl)-3-(3-(tert-butyl)-1-(p-tolyl)-1H-pyrazol-5-yl)urea], the figures for the IC50 (in assay [1]; at p38MAPKγ (MAPK12)) were 55 nM and more than 14700 nM, respectively.

Turning to `CCc1ncc(Nc2cc(COc3ccc(NC(=O)Nc4cc(C(C)(C)C)nn4-c4ccc(C)cc4)c4ccccc34)ccn2)nc1C` [Example 129, 1-(3-(tert-butyl)-1-(p-tolyl)-1H-pyrazol-5-yl)-3-(4-((2-((5-ethyl-6-methylpyrazin-2-yl)amino)pyridin-4-yl)methoxy)naphthalen-1-yl) urea], the results for the IC50 (in assay [1]; on p38MAPKγ (MAPK12)) were 40 nM and more than 15600 nM, respectively.
